Results as given in patent US11667643B2, “RIP1K inhibitors” (priority 2020, dated 2023).
Where two headings read alike, the source gives them in different places.

Tests used:
L929 cells = assay: L929 cell necroptosis assay (TNFa + zVAD, CellTiter-Glo recovery), functional murine RIP1 assay; format: cell-based; details: Mus musculus, L929, 18 h, read-out: L929-CTG-recovery, L929, TNFa + zVAD (IC50), L929 cells, zVAD-fmk, TNFa 2 ng/mL, 18 hours, CellTiter-Glo
Procedure: (§1) In this example, U937 and L929 cells were exposed to compounds of the present disclosure and a cell necroptosis assay was conducted to evaluate compound activity in functional human RIP1 and murine RIP1 assays.
(§2) U937 and L929 cells were obtained from the American Type Culture Collection (Manassa, Va., USA). Both cells were maintained in logarithmic growth phase in complete RPMI 1640 media (Sigma, ST Louis, Mo., USA) supplemented with 10% fetal bovine serum (Sigma, ST Louis, Mo., USA) at 37° C. with 5% CO2. For necroptosis assay, L929 cells were plated for 18 h in 100 μL/well medium at 10K cells/well in Costar 96-well black clear-bottom plates (Fisher Scientific, Hampton, N.H., USA); U937 cells were plated on the day of the assay in 50 μL/well medium containing 60 uM zVAD-fmk (Lonza, Basel, Switzerland) at 50K cells/well. Medium from L929 cells were removed from the 96-well plates and replaced with 50 μL/well new medium containing 40 uM zVAD-fmk. Each compound of the present disclosure evaluated in this example was serially diluted in DMSO from 2.5 mM in 4-fold dilutions, and then diluted 1:125 in complete medium. 50 μL/well 2× of the compound was then added to the cells in the plates. The cells were pre-incubated with the compound for 1 hour at 37° C. with 5% CO2 and before addition of 10 μL/well 11×TNFa (Peprotech, Rocky Hill, N.J., USA) to give a final concentration of 2 ng/mL for TNFa. The relative amount of necroptosis cells was determined by luminescent using a Wallac Victor2 Luminometer (PerkinElmer, Waltham, Mass., USA) and a CellTiter-Glo® Luminescent Cell Viability Reagent Assay (Promega, Madison, Wis., USA) added per manufacturer instructions after 18 hours of TNFa stimulation at 37° C. with 5% CO2. This example establishes that embodiments of the compounds described herein have unexpectedly potent activity against human RIP1 and murine RIP1, which allows their assessment in in vivo mouse models of disease.

U937 cells = assay: U937 cell necroptosis assay (TNFa + zVAD, CellTiter-Glo recovery), functional human RIP1 assay; format: cell-based; details: Homo sapiens, U-937, 18 h, read-out: U937 Zvad TNF CTG Recovery, U937, TNFa + zVAD (IC50), U937 cells, zVAD-fmk, TNFa 2 ng/mL, 18 hours, CellTiter-Glo
Procedure: as §1, §2

RIPK1 = RIPK1 (Homo sapiens (Human), UniProt Q13546); assay: biochemical; format: biochemical
Sequence of RIPK1 (Q13546 whole entry, species assumed): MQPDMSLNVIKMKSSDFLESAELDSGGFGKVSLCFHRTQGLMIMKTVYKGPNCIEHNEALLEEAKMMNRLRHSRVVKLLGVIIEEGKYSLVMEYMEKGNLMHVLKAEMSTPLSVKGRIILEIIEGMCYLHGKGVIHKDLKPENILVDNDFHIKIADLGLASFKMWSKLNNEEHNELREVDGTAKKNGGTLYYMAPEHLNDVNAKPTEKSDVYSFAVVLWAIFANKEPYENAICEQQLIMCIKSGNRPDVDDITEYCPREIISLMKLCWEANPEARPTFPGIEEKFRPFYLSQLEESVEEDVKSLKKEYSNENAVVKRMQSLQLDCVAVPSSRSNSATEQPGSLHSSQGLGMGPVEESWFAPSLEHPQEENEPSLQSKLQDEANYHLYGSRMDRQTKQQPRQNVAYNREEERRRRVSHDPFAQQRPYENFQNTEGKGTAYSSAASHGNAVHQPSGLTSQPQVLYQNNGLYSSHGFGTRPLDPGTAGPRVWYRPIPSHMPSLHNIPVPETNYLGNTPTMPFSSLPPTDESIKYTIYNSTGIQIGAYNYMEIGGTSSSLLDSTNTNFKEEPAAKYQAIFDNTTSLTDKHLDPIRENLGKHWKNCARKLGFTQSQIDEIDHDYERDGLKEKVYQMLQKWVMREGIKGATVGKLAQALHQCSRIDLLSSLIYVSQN
Procedure: In this example, compounds of the disclosure were evaluated using a biochemical assay using the ADP-Glo™ technology.
ADP-Glo™ (Promega, Madison, Wis., USA) reagents were thawed at ambient temperature. Kinase Detection Reagent was prepared by mixing kinase detection buffer with the lyophilized kinase detection substrate.
A […] stock volume of 5× Reaction Kinase Buffer was made by mixing 1000 μl of 1M MgCl2, 500 μl of 1M Tris-HCL pH7.4, 0.5 mg/ml (25 mg) of BSA, and 3475 μl of distilled H2O. A 3 ml 2× working stock volume of Reaction Kinase Buffer was made containing a final concentration of 100 μM DTT and 4 mM MnCl2.
Components of RIPK1 enzyme (Rigel Pharmaceuticals, South San Francisco, Calif., USA) were thawed on ice. Diluted RIPK1 was prepared in 1× Kinase Reaction Buffer (diluted from 2× buffer) to 31 ng/well.
1.0 ul of diluted compound was added to a 384 well plate in duplicate. […] The final reaction volume was 5.0 μl. The plate was quickly centrifuged and the reaction was incubated at 30° C. for 30 minutes. Adding 5 μl of ADP-Glo™ terminated the reaction. The plate was quickly centrifuged and the reaction was incubated at room temperature for 40 minutes. Kinase Detection Reagent was then added and incubated at room temperature for 30 minutes. The relative light unit (RLU) of kinase reaction was determined by luminescent (Luminescence 0.1 s) using a Wallac Victor2 Luminometer (PerkinElmer, Waltham, Mass., USA).

[1] = RIPK1 enzyme 31 ng/well, 30° C. for 30 minutes, luminescence, read-out: RIPK1 ADP-Glo Kinase (IC50)

| Structure (SMILES) | IC50 (L929 cells) | IC50 (U937 cells) | IC50 (RIPK1; [1]) | IC50 (RIPK1) |
| --- | --- | --- | --- | --- |
| O=C(NC1CCc2ccc(N3CCC4(CCOCC4)CC3)cc2-n2ccnc21)c1cc(Oc2ccccc2)ccn1 (racemic) [Compound I-62, (±)-N-(9-(3-Oxa-9-azaspiro[5.5]undecan-9-yl)-5,6-dihydro-4H-benzo[f]imidazo[1,2-a]azepin-4-yl)-4-phenoxypicolinamide] | 10.1 µM | 0.0301 µM | 0.0695 µM | – |
| O=C(NC1CCc2ccccc2-n2cnnc21)c1ncn(Cc2ccccc2)n1 (racemic) [Compound I-63, (±)-1-Benzyl-N-(5,6-Dihydro-4H-benzo[f][1,2,4]triazolo[4,3-a]azepin-4-yl)-1H-1,2,4-triazole-3-carboxamide] | 10000 µM | 0.289 µM | 0.134 µM | – |
| O=C(NC1CCc2ccc(N3CCC4(CCOCC4)CC3)cc2-n2ccnc21)c1n[nH]c(Cc2ccccc2)n1 (racemic) [Compound I-64, (±)-N-(9-(3-Oxa-9-azaspiro[5.5]undecan-9-yl)-5,6-dihydro-4H-benzo[f]imidazo[1,2-a]azepin-4-yl)-5-benzyl-1H-1,2,4-triazole-3-carboxamide] | 4.06 µM | 0.0077 µM | – | 0.124 µM |
| O=C(NC1CCc2ccc(N3CCC4(CCOCC4)CC3)cc2-n2c1noc2=O)c1n[nH]c(Cc2ccccc2)n1 (racemic) [Compound I-65, (±)-5-Benzyl-N-(1-oxo-9-(3-oxa-9-azaspiro[5.5]undecan-9-yl)-5,6-dihydro-1H,4H-benzo[f][1,2,4]oxadiazolo[4,3-a]azepin-4-yl)-1H-1,2,4-triazole-3-carboxamide] | 3.26 µM | 0.0211 µM | 0.0678 µM | – |
| O=C(NC1Cc2ccccc2-n2ccnc21)c1n[nH]c(Cc2ccccc2)n1 (racemic) [Compound I-66, (±)-5-Benzyl-N-(4,5-dihydroimidazo[1,2-a]quinolin-4-yl)-1H-1,2,4-triazole-3-carboxamide] | 10000 µM | 10000 µM | 13.5 µM | – |
| O=C(NC1Cc2ccccc2-n2ccnc21)c1cc(Oc2ccccc2)ccn1 (racemic) [Compound I-67, (±)-N-(4,5-Dihydroimidazo[1,2-a]quinolin-4-yl)-4-phenoxypicolinamide] | 10000 µM | 10000 µM | 11.4 µM | – |
| CC(C)(O)CCc1ccc2c(c1)-n1ccnc1C(NC(=O)c1n[nH]c(Cc3ccccc3)n1)CC2 (racemic) [Compound I-68, (±)-5-Benzyl-N-(9-(3-hydroxy-3-methylbutyl)-5,6-dihydro-4H-benzo[f]imidazo[1,2-a]azepin-4-yl)-1H-1,2,4-triazole-3-carboxamide] | 8.67 µM | 0.0252 µM | 0.118 µM | – |
| O=C(NC1CCc2ccccc2-n2c(Cl)cnc21)c1cc(Cc2ccccc2)on1 (racemic) [Compound I-71, (±)-5-Benzyl-N-(1-chloro-5,6-dihydro-4H-benzo[f]imidazo[1,2-a]azepin-4-yl)isoxazole-3-carboxamide] | 10000 µM | 3.48 µM | 0.58 µM | – |
| CC(C)(O)C#Cc1ccc2c(c1)-n1cnnc1C(NC(=O)c1n[nH]c(Cc3ccccc3)n1)CC2 (racemic) [Compound I-72, (±)-5-Benzyl-N-(9-(3-hydroxy-3-methylbut-1-yn-1-yl)-5,6-dihydro-4H-benzo[f][1,2,4]triazolo[4,3-a]azepin-4-yl)-1H-1,2,4-triazole-3-carboxamide] | 10000 µM | 0.708 µM | 0.219 µM | – |
| O=C(NC1CCc2ccccc2-n2c1nc(Cl)c2Cl)c1ncn(Cc2c(Cl)cccc2Cl)n1 (racemic) [Compound I-73, (±)-N-(1,2-Dichloro-5,6-dihydro-4H-benzo[f]imidazo[1,2-a]azepin-4-yl)-1-(2,6-dichlorobenzyl)-1H-1,2,4-triazole-3-carboxamide] | 10000 µM | 0.903 µM | 0.0924 µM | – |
| O=C(NC1CCc2ccccc2-n2c(Cl)cnc21)c1ncn(Cc2c(Cl)cccc2Cl)n1 (racemic) [Compound I-74, (±)-N-(1-Chloro-5,6-dihydro-4H-benzo[f]imidazo[1,2-a]azepin-4-yl)-1-(2,6-dichlorobenzyl)-1H-1,2,4-triazole-3-carboxamide] | 8.62 µM | 0.0898 µM | 0.054 µM | – |
| O=C(NC1CCc2ccc(N3CCC4(CCOCC4)CC3)cc2-n2ccnc21)c1ccn(Cc2ccccc2)n1 (racemic) [Compound I-77, (±)-N-(9-(3-Oxa-9-azaspiro[5.5]undecan-9-yl)-5,6-dihydro-4H-benzo[f]imidazo[1,2-a]azepin-4-yl)-1-benzyl-1H-pyrazole-3-carboxamide] | 4.08 µM | 0.0096 µM | 0.111 µM | – |
| O=C(NC1CCc2ccccc2-n2c1nc(Cl)c2Cl)c1n[nH]c(Cc2ccccc2)n1 (racemic) [Compound I-80, (±)-5-Benzyl-N-(1,2-dichloro-5,6-dihydro-4H-benzo[f]imidazo[1,2-a]azepin-4-yl)-1H-1,2,4-triazole-3-carboxamide] | 10000 µM | 83.4 µM | 1.87 µM | – |
| O=C(NC1CCc2ccccc2-n2c(Cl)cnc21)c1n[nH]c(Cc2ccccc2)n1 (racemic) [Compound I-81, (±)-5-Benzyl-N-(1-chloro-5,6-dihydro-4H-benzo[f]imidazo[1,2-a]azepin-4-yl)-1H-1,2,4-triazole-3-carboxamide] | 10000 µM | 4.25 µM | 0.517 µM | – |
| O=C(NC1CCc2ccc(N3CC4(CCOCC4)C3)cc2-n2ccnc21)c1n[nH]c(Cc2ccccc2)n1 (racemic) [Compound I-84, (±)-N-(9-(7-Oxa-2-azaspiro[3.5]nonan-2-yl)-5,6-dihydro-4H-benzo[f]imidazo[1,2-a]azepin-4-yl)-5-benzyl-1H-1,2,4-triazole-3-carboxamide] | 8.79 µM | 0.0386 µM | – | 0.119 µM |
| O=C(NC1CCc2ccc(N3CC4(CCOCC4)C3)cc2-n2ccnc21)c1ccn(Cc2ccccc2)n1 (racemic) [Compound I-85, (±)-N-(9-(7-Oxa-2-azaspiro[3.5]nonan-2-yl)-5,6-dihydro-4H-benzo[f]imidazo[1,2-a]azepin-4-yl)-1-benzyl-1H-pyrazole-3-carboxamide] | 1.35 µM | 0.0309 µM | 0.168 µM | – |
| CC(C)(O)C#Cc1ccc2c(c1)-n1ccnc1C(NC(=O)n1cc(Cc3ccc(F)cc3)cn1)CC2 (racemic) [Compound I-93, (±)-4-(4-Fluorobenzyl)-N-(9-(3-hydroxy-3-methylbut-1-yn-1-yl)-5,6-dihydro-4H-benzo[f]imidazo[1,2-a]azepin-4-yl)-1H-pyrazole-1-carboxamide] | 5.17 µM | 0.0371 µM | 0.0404 µM | – |
| O=C(N[C@H]1COc2ccccc2-n2nnnc21)c1n[nH]c(Cc2ccccc2)n1 [Compound I-3, (R)-5-Benzyl-N-(4,5-dihydrobenzo[b]tetrazolo[1,5-d][1,4]oxazepin-4-yl)-1H-1,2,4-triazole-3-carboxamide] | 10000 µM | 4.08 µM | 0.0582 µM | – |
| O=C(N[C@H]1COc2ccccc2-n2nnnc21)c1cc(Cc2ccccc2)on1 [Compound I-8, (R)-5-Benzyl-N-(4,5-dihydrobenzo[6]tetrazolo[1,5-d][1,4]oxazepin-4-yl)isoxazole-3-carboxamide] | 10000 µM | 4.45 µM | 0.521 µM | – |
